From patent US20100197627A1, “PANCREATIC CANCER TREATMENT” (priority 2003, published 2010)

Key:
[1] = Analysis of toxicity (body weight, general appearance) of CS-682 in Example 2 mice; format: in vivo; details: for body weight: oral gavage
Experimental: (§1) Seven days after SOI, mice were randomized into eight groups of 10 mice each, depending upon whether they were to be treated by surgical resection, chemotherapy or both. Mice in groups 1-4 were not treated surgically. […] Mice in groups 2-4 were treated with primary CS-682 at doses of 40, 50 Or 60 mg/kg each treatment day, respectively, according to the treatment schedules outlined below.
(§2) Mice in groups 5-8 underwent surgical resection of their primary tumors 7 days after orthotopic implantation by a single blinded surgeon. Mice in group 5 received no additional chemotherapy; mice in groups 6-8 received adjuvant CS-682 at doses of 40, 50 or 60 mg/kg each treatment day, respectively.
(§3) CS-682 was administered by oral gavage. Treatment with primary or adjuvant CS-682 was initiated 9 days after orthotopic tumor implantation (2 days after surgical resection when applicable) and was to be administered five times each treatment week for a total of 5 weeks or until death. […] In these groups, CS-682 was administered 9 times in weeks 1 and 2 after SOI and then 10 times in weeks 4 and 5, with a treatment hiatus during week 3.
(§4) Twice/week, mice were weighed and underwent external in vivo imaging. This was performed in a fluorescent light box illuminated by fiberoptic lighting at 470 nm (Lightools Research, Encinitas Calif.). […] Emitted fluorescence was collected through a long-pass filter GG475 (Chroma Technology, Battleboro, Vt.) on a Hamamatsu C5810 3-chip cooled color charge-coupled device camera (Hamamatsu Photonics Systems, Bridgewater, N.J.). High-resolution images of 1024×724 pixels were captured directly on an IBM PC or continuously through video output on a high-resolution Sony VCR model SLV-R1000 (Sony Corp., Tokyo, Japan). Images were processed for contrast and brightness and analyzed with the use of Image Pro Plus 3.1 software (Media Cybernetics, Silver Spring, Md.). Real-time determination of tumor burden was performed by quantifying fluorescent surface area.
The body weight and general appearance of each mouse were monitored and recorded twice weekly as evidence of systemic toxicity. […] Wasting of body fat, most pronounced in the interscapular area of the back, was a common late finding that occurred in conjunction with disseminated disease.

[2] = system: subcutaneously-implanted solid tumor xenografts; details: several subcutaneously-implanted solid tumor xenografts; cited from earlier work
[3] = system: tumor cell lines of the stomach, lung, colon and breast; details: oral CS-682; cited from earlier work
[4] = Body weight loss and toxicity of oral CS-682 in tumor-bearing nude mice (Example 1); format: in vivo; details: doses higher than 60 mg/kg per day, oral gavage
Experimental: (§5) CS-682 (1-(2-C-cyano-2-deoxy-β-D-arabino-pentofuranosyl)-N^4-palmitoylcytosine, Sankyo Pharmaceuticals, Tokyo) was administered by oral gavage. Prior to the first treatment, mice were randomized into eight groups of 10 mice each for treatment purposes.
(§6) Groups 2, 3 and 4 received 40, 60 and 80 mg/kg/dose CS-682, respectively, each scheduled treatment day.
(§7) […] received 20, 30, 40 and 50 mg/kg/dose CS-682 twice each treatment day, respectively.
(§8) Dosing was initiated five days after surgical orthotopic implantation, and was performed five days each week until death.
External, in vivo whole body imaging, for at least once a week, mice were weighed and underwent external, in vivo imaging. This was performed in a fluorescent light box illuminated by fiberoptic lighting at 470 nm (Lightools Research, Encinitas, Calif.). Emitted fluorescence was collected through a long-pass filter GG475 (Chroma Technology, Battleboro, Vt.) on a Hamamatsu C5810 3-chip cooled color CCD camera (Hamamatsu Photonics Systems, Bridgewater, N.J.). […] Images were processed for contrast and brightness and analyzed with the use of Image Pro Plus 3.1 software (Media Cybernetics, Silver Spring, Md.). Real-time determination of tumor burden was performed by quantifying fluorescent surface area, as described previously (Bouvet, M., et al., Cancer Res. (2002) 62:1534-1540).

[5] = system: MIA-PaCa-2-RFP pancreatic cancer; assay: Efficacy of oral CS-682 in surgical orthotopic implantation (SOI) mouse model of MIA-PaCa-2-RFP pancreatic cancer (Example 1); format: in vivo, nude mice (NCr-nu); details: for median survival: control 17 days; for mice with evident intra-abdominal fluid (ascites) on examination: 100% of controls within 16 days
Experimental: The model employed pancreatic tumors derived from the MIA-PaCa-2 pancreatic cancer cell line.
The MIA-PaCa-2 pancreatic cancer cell line was obtained from the American Type Culture Collection (Rockville, Md.), maintained in DMEM media supplemented with 10% heat-inactivated fetal bovine serum and 1% penicillin and streptomycin (Gibco-BRL, Life Technologies, Inc., Grand Island, N.Y.) and cultured at 37° C. in a 5% CO2 incubator.
The pDsRed-2 vector (Clontech Laboratories Inc., Palo Alto, Calif.) was used to engineer MIA-PaCa-2 clones stably expressing RFP. This vector expresses RFP and the neomycin resistance gene on the same bicistronic message. pDsRed-2 was produced in PT67 packaging cells. RFP transduction was initiated by incubating 20% confluent MIA-PaCa-2 cells with retroviral supernatants of the packaging cells and DMEM for 24 hours. Fresh medium was replenished at this time and cells were allowed to grow in the absence of retrovirus for 12 hours. This procedure was repeated until high levels of RFP expression, as determined using fluorescence microscopy, were achieved. Cells were then harvested by trypsin/EDTA and subcultured into selective medium that contained 200 μg/ml G418. The level of G418 was increased to 2000 μg/ml stepwise. Clones expressing high levels of RFP were isolated with cloning cylinders as needed, and were amplified and transferred using conventional culture methods. High RFP-expression clones were isolated in the absence of G418 for 10 passages to select for stable expression of RFP in vivo.
Male nude mice (NCr-nu) between 4-6 weeks of age were maintained in a barrier facility on HEPA-filtered racks. The animals were fed with autoclaved laboratory rodent diet (Teckland LM-485; Western Research Products, Orange, Calif.). Animal experiments were performed in accordance with the Guidelines for the Care and Use of Laboratory Animals (NIH Publication Number 85-23) under assurance number A3873-01.
Red-fluorescent human pancreatic cancer xenografts were established in nude mice by surgical orthotopic implantation (SOI). Briefly, MIA-PaCa-2-RFP tumors in the exponential growth phase, grown subcutaneously in nude mice, were resected aseptically. Necrotic tissues were cut away, and the remaining healthy tumor tissues were cut with scissors and minced into 1 mm^3 pieces in RPMI 1640 medium. Mice were then anesthetized and their abdomens were sterilized with alcohol. An incision was then created through the left upper abdominal pararectal line and peritoneum. The pancreas was carefully exposed and two tumor pieces were transplanted onto the middle of the gland using a single 8-0 surgical suture (Davis-Geck, Inc., Manati, Puerto-Rico). The pancreas was then returned into the peritoneal cavity, and the abdominal wall and the skin were closed in two layers using 6-0 surgical sutures. All procedures were performed with a 7× microscope (Olympus) or standard surgical loupes.
as §5, §6, §7, §8
External, in vivo whole body imaging, for at least once a week, mice were weighed and underwent external, in vivo imaging. This was performed in a fluorescent light box illuminated by fiberoptic lighting at 470 nm (Lightools Research, Encinitas, Calif.). Emitted fluorescence was collected through a long-pass filter GG475 (Chroma Technology, Battleboro, Vt.) on a Hamamatsu C5810 3-chip cooled color CCD camera (Hamamatsu Photonics Systems, Bridgewater, N.J.). […]

[6] = system: MIA-PaCa-2-RFP pancreatic cancer; assay: Primary and adjuvant (after surgical resection) CS-682 in orthotopic MIA-PaCa-2-RFP metastatic pancreatic cancer mouse model (Example 2); format: in vivo, nude mice
Source text: The efficacy of oral CS-682 in the adjuvant treatment of metastatic pancreatic cancer was studied. […] The study discussed below used a highly aggressive clone of the human pancreatic cancer cell line MIA-PaCa-2 pancreatic cancer cell line that was engineered, as discussed above, to selectively express high levels of the Discosoma red fluorescent protein. This brightly fluorescent model facilitated the noninvasive quantification of tumor burden throughout the course of treatment.
The MIA-PaCa-2 pancreatic cancer cell line and the animals used in the study were prepared as discussed in Example 1, with the following exceptions. Following orthotopic implantation of MIA-PaCa-2-RFP tumors, each mouse in a treatment group requiring surgical resection of the primary pancreatic tumor was anesthetized and prepared for surgery. The peritoneum was subsequently reopened through the original incision and an examination of adjacent structures was performed to ensure that macroscopic disease was localized to the pancreas. All grossly visible tumor was removed using sharp dissection. Hemostasis was achieved using 6-0 sutures. The abdomen was then closed in two layers.
as §1, §2, §3, §4
Mice were sacrificed and explored when they appeared premorbid. After euthanasia, each mouse underwent laparotomy and sternotomy. Excitation of RFP in the light box, described above, facilitated identification of primary and metastatic disease by fluorescence visualization. After performing full-body open images, the solid organs were removed, and their surfaces were thoroughly examined for any evidence of metastases. Fluorescence microscopy was accomplished using a Leica fluorescence stereo microscope model LZ12 (Leica Microsystems, Inc., Bannockburn, Ill.) equipped with a mercury 50-W lamp power supply. Selective excitation of RFP was produced through a […]. Emitted fluorescence was collected by the Hamamatsu camera system described above. […]

## CCCCCCCCCCCCCCCC(=O)Nc1ccn([C@@H]2O[C@H](CO)[C@@H](O)[C@@H]2C#N)c(=O)n1 [CS-682, 1-(2-C-cyano-2-deoxy-β-D-arabino-pentofuranosyl)-N^4-palmitoylcytosine]
[1]; 40 mg/kg each treatment day
  body weight: not associated with a significant loss in body weight
[1]; 50 mg/kg each treatment day, chronic
  body weight: did not lead to a significant loss of body weight
[1]; 60 mg/kg, by day 20, after first nine doses
  loss in body weight: 15%
[1]; 60 mg/kg, modified schedule with hiatus in week 3, day 41
  animals lost to toxicity: 1 animal
[2]
  antitumor activity: potent antitumor activity
[3]
  cytotoxic activity compared with parent compound CNDAC: more potent cytotoxic activity than its parent compound
[4]
  toxicity-related death: toxicity-related death was observed in a significant number of mice
[5]; 20 mg/kg twice daily oral, p=0.003
  median survival: 27 days
[5]; 20 mg/kg twice daily, 40 mg/kg daily and 60 mg/kg daily, p<0.05 at each time point
  tumor growth (mean area of external RFP autofluorescence): inhibit pancreatic cancer growth
[5]; 30 mg/kg twice daily oral
  median survival: 19 days
[5]; 40 mg/kg and 60 mg/kg daily, control within first two weeks
  time until widespread tumor metastasis visible by whole-body RFP imaging: not visible until the third and fourth week post-implantation
[5]; 40 mg/kg daily
  development of metastases at autopsy (diaphragm, portal nodes, liver, intestinal nodes, kidney): significantly inhibited the development of metastases
  mice with evident intra-abdominal fluid (ascites) on examination: 50%
[5]; 40 mg/kg daily oral, p=0.0008
  median survival: 35 days
[5]; 40 mg/kg daily, day 16 after implantation
  mice with locally confined disease: 90%
[5]; 40 mg/kg daily, control 5.163 g, p=0.16
  primary tumor average weight at autopsy: 3.935 g
[5]; 40 mg/kg twice daily oral
  median survival: 19 days
[5]; 50 mg/kg twice daily oral
  median survival: 18 days
[5]; 60 mg/kg daily (p=0.0004), 20 mg/kg twice daily (p=0.003)
  effect on primary tumor growth (weight at autopsy): significant effect on primary tumor growth
[5]; 60 mg/kg daily oral, p=0.002
  median survival: 36 days
[5]; 60 mg/kg daily
  mice with evident intra-abdominal fluid (ascites) on examination: 10%
[5]; 80 mg/kg daily oral
  median survival: 19 days
[6]; adjuvant 50 mg/kg after surgical resection
  mice that lived at least 60 days: 30%
[6]; adjuvant 50 mg/kg after surgical resection, day 23
  animals with at most local disease confined to one abdominal quadrant: 70%
[6]; adjuvant 50 mg/kg after surgical resection, untreated 26 days, resection alone 28 days
  median survival: 48 days
[6]; adjuvant 50 mg/kg, the 30% of mice with long-term survival
  time after completion of chemotherapy until distant metastasis seen: 10 days
[6]; adjuvant CS-682 after surgical resection
  animals showing signs of fluid retention (ascites) at the time of their death: 20%
[6]; adjuvant CS-682 after surgical resection, all doses tested (40, 50, 60 mg/kg)
  survival versus treatment controls: significant increase in survival over treatment controls
[6]; primary CS-682 without resection, 40, 50 and 60 mg/kg
  survival versus untreated: significantly enhanced the survival
